Experiments:
[1] = Cytotoxicity against human K562 cells assessed as decrease in cell viability by MTT assay; assay type: functional
Homo sapiens = species: Homo sapiens; experiment: Inhibition of recombinant PI3K (unknown origin) assessed as residual activity at 100 uM by [gamma-32P]ATP based assay
[2] = molecular target: Tyrosine-protein kinase ABL1 (Homo sapiens, UniProt P00519); experiment: Inhibition of wild type recombinant human Abl using abtide as substrate by [gamma-32P]ATP based assay
Tyrosine-protein kinase ABL1, sequence (P00519 whole entry): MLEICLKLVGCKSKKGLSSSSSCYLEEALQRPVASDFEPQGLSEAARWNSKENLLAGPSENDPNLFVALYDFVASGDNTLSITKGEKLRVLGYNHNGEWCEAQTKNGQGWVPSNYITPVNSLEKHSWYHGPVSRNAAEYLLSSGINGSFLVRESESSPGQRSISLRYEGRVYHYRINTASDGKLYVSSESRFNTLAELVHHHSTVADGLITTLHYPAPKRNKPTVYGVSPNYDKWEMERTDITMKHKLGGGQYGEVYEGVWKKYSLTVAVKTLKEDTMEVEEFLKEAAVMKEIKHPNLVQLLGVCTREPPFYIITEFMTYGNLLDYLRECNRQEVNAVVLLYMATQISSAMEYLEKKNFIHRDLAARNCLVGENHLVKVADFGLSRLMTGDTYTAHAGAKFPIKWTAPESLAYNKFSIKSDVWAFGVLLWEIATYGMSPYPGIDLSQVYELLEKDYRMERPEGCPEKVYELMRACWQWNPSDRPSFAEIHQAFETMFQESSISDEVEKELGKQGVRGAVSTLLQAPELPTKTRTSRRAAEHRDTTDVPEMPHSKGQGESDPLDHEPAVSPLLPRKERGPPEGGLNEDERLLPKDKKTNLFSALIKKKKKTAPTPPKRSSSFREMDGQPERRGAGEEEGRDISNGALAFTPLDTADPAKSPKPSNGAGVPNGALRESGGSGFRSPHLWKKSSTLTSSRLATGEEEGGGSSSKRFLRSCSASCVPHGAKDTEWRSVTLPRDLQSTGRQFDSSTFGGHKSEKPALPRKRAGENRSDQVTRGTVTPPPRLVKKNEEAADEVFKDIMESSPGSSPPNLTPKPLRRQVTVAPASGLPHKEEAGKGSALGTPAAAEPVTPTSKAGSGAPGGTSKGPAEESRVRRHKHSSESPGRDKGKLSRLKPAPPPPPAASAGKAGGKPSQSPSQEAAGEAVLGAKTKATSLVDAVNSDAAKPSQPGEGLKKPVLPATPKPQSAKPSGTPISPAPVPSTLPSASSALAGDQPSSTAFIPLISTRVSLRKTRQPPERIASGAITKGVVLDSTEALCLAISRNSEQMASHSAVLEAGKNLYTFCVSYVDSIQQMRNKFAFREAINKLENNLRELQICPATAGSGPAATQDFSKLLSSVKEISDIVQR

| Structure (SMILES) | CC50 [1] | Activity (Homo sapiens) | IC50 [2] |
| --- | --- | --- | --- |
| NNc1nc2c(cnn2-c2ccccc2)c(=O)n1-c1ccccc1 | 2370 nM | – | – |
| COc1ccc(-c2nnc3n(-c4ccccc4)c(=O)c4cnn(-c5ccccc5)c4n23)cc1 | 1060 nM | 90% | – |
| Cc1nc(Nc2ncc(C(=O)Nc3c(C)cccc3Cl)s2)cc(N2CCN(CCO)CC2)n1 [DASATINIB] | 250 nM | – | – |
| COc1ccc(C(=O)NNc2nc3c(cnn3-c3ccccc3)c(=O)n2-c2ccccc2)cc1 | 50 nM | 80% | – |
| O=C(NNc1nc2c(cnn2-c2ccccc2)c(=O)n1-c1ccccc1)c1ccccc1 | 70 nM | 100% | – |
| O=c1c2cnn(-c3ccccc3)c2n2c(Nc3ccccc3)nnc2n1-c1ccccc1 | 4920 nM | – | 150 µM |
| O=c1c2cnn(-c3ccccc3)c2n2c(-c3ccccc3)nnc2n1-c1ccccc1 | 920 nM | 82% | – |
| O=c1c2cnn(-c3ccccc3)c2nc(N/N=C/c2ccc(F)cc2)n1-c1ccccc1 | 4060 nM | – | 110 µM |
| O=C(NNc1nc2c(cnn2-c2ccccc2)c(=O)n1-c1ccccc1)c1ccc(Cl)cc1 | 860 nM | – | – |

Source: ChEMBL document CHEMBL3871261, “Novel pyrazolo[3,4-d]pyrimidines as dual Src-Abl inhibitors active against mutant form of Abl and the leukemia K-562 cell line” (Eur J Med Chem, 2016)
